Consider 7 molecules from patent US12421187B2, “Dihydrofolate synthase (DHFS) inhibiting agents and methods of making and using same” (Washington Univeristy, priority 2022, dated 2025).

Assay [1] deals with T1, dihydropteroate synthase (DHPS) (Escherichia coli, UniProt P0AC13).
T1 construct: made in house; host or cells: E. coli BL21 (given for HPPK; the other enzymes 'in the same manner')
Briefly: HPPK/DHPS/DHFR steady state kinetics inhibition assay (NADPH consumption, absorbance at 340 nm). It counts as biochemical, E. coli.
Method: (§1) DHFR would only reduce dihydropteroic acid, not 6-hydroxymethyl-7,8-dihydropterin, and as long as the DHFR rate was not slower than the DHPS rate, then the rate limiting step of DHPS is represented by the decrease in absorbance at 340 nm overtime.
(§2) HPPK, DHPS, DHFR and all their associated cosubstrates (ATP, PABA, NADPH) were combined in suitable buffer conditions (pH=7.5) and the optical absorbance at 340 nm was measured over time (see e.g., FIG. 21A).
HPPK/DHPS/DHFR Steady State Kinetics Inhibition
Stock solutions of all reagents were made using 100 mM Tris-buffer (pH=7.5) and stored in fractions in a −80° C. freezer until use (see e.g., TABLE 6).
An assay stock solution containing everything except the HPPK/DHPS/DHFR solution and the Tris buffer+Inhibitor was made and 88.5 μL was distributed to each well (in triplicate) of a quartz 96-well plate to be used. […] 7.5 μL of the enzyme solution containing HPPK/DHPS/DHFR was added to each well and the plate was put into a UV/Vis plate reader and incubated at 37° C. while the optical absorbance at 340 nm was read every 10 s for 1 h. The apparent reaction 1-9 rate for absorbance decrease was measured from between 0-5 min.

The target of assay [2] is T1, dihydropteroate synthase (DHPS). Briefly: HPPK/DHPS/DHFR steady state kinetics with PABA or 3-HβL as DHPS substrate. Format: biochemical, E. coli.
Method: as §1, §2
HPPK/DHPS/DHFR Steady State Kinetics
Stock solutions of all reagents were made using 100 mM Tris buffer (pH=7.5) and stored in fractions in a −80° C. freezer until use (see e.g., TABLE 5).
An assay stock solution containing everything except the enzymes was made and 142.5 μL was distributed to each well (6 total) on a quartz 96-well plate that had been flushed with argon. To each of the first three wells was then added 7.5 μL of the enzyme solution containing HPPK/DHPS/DHFR, and to each of the last 3 wells was added 7.5 μL of 100 mM Tris-buffer. The 96-well plate was put into a UV/Vis plate reader and incubated at 37° C. while the optical absorbance at nm was read every 10 s for 1 h. The apparent reaction rate for absorbance decrease was measured from between 0-5 min. Each well was combined with their triplicate partners and the solutions were centrifuge filtered through a molecular weight cutoff (MWCO) to remove any enzymes. The solutions then run on an LCMS with single ion monitoring methods to detect the various oxidation states of products.
HPPK/DHPS/DHFR Steady State Kinetics with a 3-HG3L as a Substrate Stock solutions of all reagents were made using 100 mM Tris buffer (pH=7.5) and stored in fractions in a −80° C. freezer until use (see e.g., TABLE 7).
An assay stock solution containing everything except the enzymes was made and 142.5 μL was distributed to each well (6 total) on a quartz 96-well plate that had been flushed with argon. To each of the first three wells was then added 7.5 μL of the enzyme solution containing HPPK/DHPS/DHFR, and to each of the last 3 wells was added 7.5 μL of 100 mM Tris-buffer. The 96-well plate was put into a UV/Vis plate reader and incubated at 37° C. while the optical absorbance at nm was read every 10 s for 1 h. The apparent reaction rate for absorbance decrease was measured from between 0-5 min. Each well was combined with 1-0 their triplicate partners and the solutions were centrifuge filtered through a molecular weight cutoff (MWCO) to remove any enzymes. The solutions then run on an LCMS with single ion monitoring methods to detect the various oxidation states of products.
In assay [3] the target is T2, dihydrofolate synthetase (DHFS) (Escherichia coli, UniProt P08192).
T2 construct: made in house; host or cells: E. coli BL21 (given for HPPK; the other enzymes 'in the same manner')
Nature of the assay: DHFS steady state kinetics inhibition assay (PK/LDH coupled, absorbance at 340 nm, LCMS of product). As to conditions: for DHFS product detected by LCMS of the reaction mixtures: higher inhibitor concentrations, FIG. 38A-38B. It counts as biochemical, E. coli. The text has this: With a suitable DHFS substrate in hand (THFA), conditions to measure the rate of DHFS action were investigated. […] Given none of the substrates or cofactors of DHFS (see e.g., FIG. 19) would be suitable for absorbance change detection, a coupled enzyme reaction with pyruvate kinase/lactate dehydrogenase (PK/LDH) was chosen. In the presence of ADP (in this case produced by DHFS), PK would convert phosphoenolpyruvate (PEP) to pyruvate, reforming ATP in the process (see e.g., FIG. 20A). The pyruvate would then be reduced by LDH in a NADH dependent manner (see e.g., FIG. 20B). The oxidation of NADH to NAD^+ would cause a decrease in absorbance at 340 nm, which can be measured as a rate of DHFS activity as long as the PK/LDH process was not the rate limiting step of the pathway from THFA to NAD^+.
THFA and its associated cofactors (L-Glu, ATP) were dissolved in degassed buffer solution (pH=7.5) to reconstitute DHFS activity with coupling to PK/LDH activity in the presence of excess cosubstrates (PEP, NADH) (see e.g., FIG. 24A). The optical absorbance at 340 nm was measured over time and a steady-state approximation of DHFS rate (7.18 E-5 abs/s) was determined (see e.g., FIG. 24B). Once the reaction had progressed for 20 minutes, 1 M HCl was added to quench the reaction and KCl+MeOH was added to agglutinate the protein and solubilize the pterin-containing metabolites. The vials were heated for 1 h at 70° C. and centrifuged to remove precipitated enzymes. The supernatant solution was spiked with a fixed concentration of Fmoc-alanine as an internal standard for LCMS analysis.
DHFS Steady State Kinetics Inhibition Assay
Stock solutions of all reagents were made using 100 mM Tris-buffer (pH=7.5) an stored in fractions in a −80° C. freezer until use. 1500 μL of a stock solution containing everything (in appropriate amounts to maintain the final concentration calculations for 150 total μL well volume) in the table above except the DHFS and the Tris Buffer+inhibitor was made. Solutions of the Tris Buffer+inhibitor were made so as to achieve final inhibitor concentrations as below. The final concentrations of inhibitor can be adjusted as necessary.
Each necessary well of a quartz 96-well plate was flushed with argon then filled (in triplicate) with 69.75 μL of stock solution and 75.75 μL of Tris Buffer+Inhibitor solution. The quartz plate was incubated at 37° C. for 10 minutes then 4.5 μL of DHFS stock solution was quickly added to each well except well 6, to which 4.5 μL of Tris-buffer was added. The quartz plate was put in a plate reader at 37° C. and the optical absorbance at 340 nm was read every 10 seconds for 20 min. The apparent reaction rate for absorbance decrease was measured from between 0-5 min. Each well was combined with their triplicate partners and the solutions were centrifuge filtered through a molecular weight cutoff (MWCO) to remove any enzymes. The solutions were spiked with enough Fmoc-ala to bring the final concentration to 50 μM (moc-ala then run on an LCMS with single ion monitoring methods to detect the various oxidation states of THEA and Glu-THFA.
An alternative method is as follows: After the 20-minute optical absorbance reading, the triplicate solutions were combined then diluted with 200 μL MeOH and an amount of KCl in H2O to bring the final concentration of KCl to 20 mM. The solutions were then incubated at 70° C. for 1 h. […]

The next assay relates to E. coli. Briefly: Whole cell antibacterial susceptibility test, bacterial growth curves in 96-well plate. It counts as cell-based. The method, then:
Bacterial growth curves were determined for E. coli using two compounds—inhibitor 4.10 and trimethoprim (positive control). A 96-well plate format was used to achieve serial dilution of the test compounds and included a DMSO control to simulate the concentration of DMSO required to solubilize the test compounds in the growth medium (not shown).

The next assay concerns E. coli ATC 25922. Briefly: Agar diffusion antibacterial susceptibility assay. Format: cell-based. The settings on record: for zone of inhibition at 3520 µg/mL / zone of inhibition at 15000 µg/mL: Escherichia coli; for zone of inhibition at 15000 µg/mL: 15 mg/mL in DMSO. The method, then: Inhibitor 4.10 was also used alongside sulfamethoxazole and trimethoprim and in combination with sulfamethoxazole and trimethoprim respectively, in an agar diffusion antibacterial susceptibility assay (see e.g., FIG. 41 and TABLE 11).
An overnight culture of E. coli ATC 25922 was grown in 5 mL of LB broth. 22 g of Mueller Hinton II broth powder and 15 g of agar were dissolved in 1 L of dd-H2O and autoclaved. The MH II agar broth was cooled to 47° C. and 35 mL of MH II agar broth was inoculated with 100 μL of OD600=0.1 E. coli from the overnight culture. The inoculated agar was plated and once cool enough, 10 wells were cut out using a vacuum. Each well was filled with 50 μL DMSO solutions as below and the plates were left in an incubator at 37° C. for 18 h. The zones of inhibition were measured for each well.
(Agar diffusion results depend on both activity and mobility in agar.)

In a further assay the target is T3, DHFS (Escherichia coli, UniProt P08192).
T3 construct: made in house; host or cells: E. coli BL21 (given for HPPK; the other enzymes 'in the same manner')
Nature of the assay: Protein mass spectrometry of DHFS incubated with inhibitor (covalent adduct search). As to conditions: 0, 40, 400 μM inhibitor, 20 μM DHFS, 37° C., 1 hour. Set-up: species or system E. coli. From the text:
If DHFS is indeed phosphorylating the 3-hydroxyl group of the 3-HβL warhead, then why was it not detected by LCMS analysis? The possibility was considered that the higher concentrations of compound 4.10 resulting in 100% DHFS inhibition might be consistent with covalent modification of the enzyme by the inhibitor. This could happen by a variety of different mechanisms including the canonical β-lactam suicide inhibition mechanism through acylation of nucleophilic amino acid side chains. However, there is a potentially novel mechanism at play when considering the reactivity of an activated benzylic position of para-aniline derivatives. The presence of a leaving group at the benzylic position of para-anilines results in the formation of reactive quinone-imine-methide species. If the 3-hydroxy group of inhibitor 4.10 is phosphorylated in the DHFS active site, it could serve as a leaving group leading to spontaneous formation of a quinone-imine-methide that might react with nearby amino acid side chains. This transformation could also take place within the mass spec, making detection of the phosphorylated inhibitor impossible (see e.g., FIG. 39). […] The LCMS samples were also analyzed for the presence of a reaction product between the 3-HβL and L-Glu, but no masses which could match this description were found. […]

Where [4] appears, read: ATC25922, 3.52 mg/mL in DMSO, 50 μL per well, 37° C., 18 h, read-out: Zone of Inhibition.
Setting [5] is: ATC25922, 50 μL per well, 37° C., 18 h.

The structures appear in SMILES notation. Converted amounts (≈) assume the structure as drawn. “Also recorded” adds a separate entry of the source. Where two headings read alike, the source gives them in different places.

One may read the zone of inhibition as the extent of the growth-free halo in a diffusion test.

T1 sequence (P0AC13 whole entry): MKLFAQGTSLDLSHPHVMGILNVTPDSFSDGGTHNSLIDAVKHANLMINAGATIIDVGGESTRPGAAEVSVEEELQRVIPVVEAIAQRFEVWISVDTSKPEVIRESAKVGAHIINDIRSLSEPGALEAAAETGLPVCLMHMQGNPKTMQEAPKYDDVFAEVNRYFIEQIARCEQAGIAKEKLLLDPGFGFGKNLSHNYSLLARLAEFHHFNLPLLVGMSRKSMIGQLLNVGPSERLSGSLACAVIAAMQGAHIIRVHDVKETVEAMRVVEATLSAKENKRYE
T2 sequence (P08192 whole entry): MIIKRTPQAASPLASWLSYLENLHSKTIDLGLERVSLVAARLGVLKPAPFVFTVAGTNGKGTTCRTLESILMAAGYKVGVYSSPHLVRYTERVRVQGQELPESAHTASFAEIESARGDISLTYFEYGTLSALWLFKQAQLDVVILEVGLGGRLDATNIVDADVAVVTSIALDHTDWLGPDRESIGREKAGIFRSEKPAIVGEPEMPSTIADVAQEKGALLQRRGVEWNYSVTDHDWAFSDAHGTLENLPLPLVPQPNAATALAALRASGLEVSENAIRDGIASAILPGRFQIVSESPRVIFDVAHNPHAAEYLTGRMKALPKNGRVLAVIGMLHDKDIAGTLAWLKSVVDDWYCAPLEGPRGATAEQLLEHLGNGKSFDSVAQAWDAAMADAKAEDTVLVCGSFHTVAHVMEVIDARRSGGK
T3 sequence (P08192 whole entry): as above

`Nc1ccc(C2(O)CNC2=O)cc1` (stereo not shown) [Compound 2.44, 3-(4-aminophenyl)-3-hydroxyazetidin-2-one]: in assay [1], the “Inhibition of DHPS (in words)” value was “not an inhibitor of DHPS”. In addition, the “Substrate of DHPS, rate as substrate (in words)” value in assay [2] is on record as “substrate of DHPS”; in assay [2] (listed as 3-(para-NH2-phenyl)-3-HβL), “substrate”; in assay [2] (listed as BVD-3-7) it was “slower”.

With `Nc1ncc(CNc2ccc(C3(O)CNC3=O)cc2)c(N)n1` (stereo not shown) [Compound 4.6, 3-(4-(((2,4-diaminopyrimidin-5-yl)methyl)amino)phenyl)-3-hydroxyazetidin-2-one], the “Dose-dependent inhibition of DHFS (in words)” value in assay [3] is reported as “no apparent dose dependent inhibition of DHFS”.

Consider `Nc1nc(N)c2nc(CNc3ccc(C4(O)CNC4=O)cc3)cnc2n1` (stereo not shown) [Compound 4.10, 3-(4-(((2,4-diaminopteridin-6-yl)methyl)amino)phenyl)-3-hydroxyazetidin-2-one], for which, in assay [3], the “Dose-dependent inhibition of DHFS (in words)” value was “dose-dependent inhibitory response” and the “DHFS product detected by LCMS of the reaction mixtures” value was “no product detected”. For the same molecule, in assay [3] (at higher (double digit micromolar) concentrations), the DHFS rate inhibition is given as roughly 100%. The “Inhibition of bacterial growth (in words)” value in the assay on E. coli (serial dilution, compared with DMSO control) is listed as “No significant inhibition of bacterial growth”. Also, in the assay on E. coli ATC 25922 (E. coli), the “Bacterial growth inhibition in agar diffusion (in words)” value (from here on “Bacterial growth inhibition”) is listed as “no bacterial growth inhibition was observed; also recorded: no apparent effect on E. coli growth” and the “Synergistic effect in combination with sulfamethoxazole or trimethoprim (in words)” value is “No apparent synergistic effect”. In addition, the zone of inhibition at 3520 µg/mL with E. coli ATC 25922 (ATC25922, 18 h) amounted to 0 mm. For the same molecule, the “3-HβL-DHFS covalent adducts by protein mass spectrometry (in words)” value at DHFS is recorded as “no apparent peaks corresponding to DHFS+334 mass units; also recorded: no 3-HβL—DHFS adducts formed”.

Turning to `NCC(O)(C(=O)O)c1ccc(NCc2cnc3nc(N)nc(N)c3n2)cc1` (stereo not shown) [Compound 4.12, 3-amino-2-(4-(((2,4-diaminopteridin-6-yl)methyl)amino)phenyl)-2-hydroxypropanoic acid], the “DHFS product detected by LCMS of the reaction mixtures” value in assay [3] is listed as “still showed some product”.

Consider `Nc1ccc(C(=O)O)cc1` [PABA, p-amino-benzoic acid, reference compound], for which the “Substrate of DHPS, rate as substrate (in words)” value in assay [2] is listed as “faster”.

For the molecule `Cc1cc(NS(=O)(=O)c2ccc(N)cc2)no1` [sulfamethoxazole], the “Bacterial growth inhibition” value in the assay with E. coli ATC 25922 (E. coli) is listed as “clear zones of bacterial growth inhibition”. In addition, the zone of inhibition at 3520 µg/mL with E. coli ATC 25922 (setting [4]) was 23.2 mm. For the same molecule, in the assay with E. coli ATC 25922 (setting [5]), the zone of inhibition at 15000 µg/mL was determined as 25.9 mm.

Turning to `COc1cc(Cc2cnc(N)nc2N)cc(OC)c1OC` [trimethoprim], the MIC with E. coli (Escherichia coli, read-out: MIC (minimum inhibitory concentration)) was found to be 2 µM (≈ 0.581 µg/mL). For the same molecule, the “Bacterial growth inhibition” value with E. coli ATC 25922 (E. coli) was “clear zones of bacterial growth inhibition”. Moreover, in the assay on E. coli ATC 25922 (setting [4]), the zone of inhibition at 3520 µg/mL came to 39.6 mm. Moreover, the zone of inhibition at 15000 µg/mL in the assay with E. coli ATC 25922 (setting [5]) was determined as 45.3 mm.
